Measurements: patent US9409864B2, “Sulfonamide TRPA1 receptor antagonists” (ARIO PHARMA LIMITED, priority 2013, dated 2016)
Read-outs that look alike come from different tables or passages of the source.

Columns and labels:
[1] = target: T1, native human TRPA1 receptors (Homo sapiens, UniProt O75762); assay: PF-4840154 (1 μM)-induced Ca2+ fluorescence measurements in A549 cell line; assay type: cell-based; details: for inhibition at 10 µM: 10 μM compound against 1 μM PF-4840154, A549 cells; for IC50: against PF-4840154 (1 μM)-evoked [Ca2+]i mobilization
T1 construct: stably expressing native human TRPA1 receptors were used; endogenous in cells; host or cells: A549 human lung adenocarcinoma epithelial cell line
Summary of the method: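 A549 cells stably expressing native human TRPA1, Fluo-4 AM loaded; fluorescence Ca2+ read in HBSS with probenecid and Brilliant Black at 36.5 °C. Compounds tested alone for agonism and against 1 μM PF-4840154 for inhibition at initial 10 μM; IC50 from full concentration-response curves for selected compounds.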

[2] = test system: PF-4840154-induced mechanical hyperalgesia in rats; assay: Agonist (PF-4840154)-induced mechanical hyperalgesia in rats; assay type: in vivo; details: Rattus norvegicus, 30 μmol/kg oral, PF-4840154 0.05 nmol/50 μl/paw intraplantar
Excerpt: Agonist (PF-4840154)-Induced Mechanical Hyperalgesia in Rats
The method is used to investigate the anti-hyperalgesic effects of the compounds listed in the present invention following agonist (PF-4840154)-induced hyperalgesic responses. The activity is indicative of TRPA1 receptor occupancy following oral dosing. Specifically, male SD rats (Charles River, Italy) weighing 70-100 g. were used. The anti-hyperalgesic effects were investigated using the electronic dynamometer test. PF-4840154 (Sigma, USA) was used to induce mechanical hyperalgesia. Local, intraplantar injection of PF-4840154 at 0.05 nmol/50 μl/paw caused the reduction of the hind paw withdrawal response induced by mechanical stimuli. Mechanical stimulation was induced in basal condition and 30, 60, 120, 180 and 240 minutes after the oral administration of the antagonists dissolved in 2.5% DMSO and 30% Solutol. Compounds were orally administered (30 μmol/kg/10 ml) to rats 1 hour before the injection of PF-4840154 into the plantar surface of a rat's hind using a micro syringe.

[3] = test system: oxaliplatin-induced mechanical hyperalgesia in rats; assay: Oxaliplatin-induced mechanical hyperalgesia in rats; assay type: in vivo; details: Rattus norvegicus, 168 h, 30 μmol/kg oral, 7 days post i.v. oxaliplatin 2.5 mg/kg
Procedure: Oxaliplatin-Induced Mechanical Hyperalgesia in Rats
The method described by Nassini et al. (Pain, 2011, 152(7), 1621-31) was used with minor modifications. Restrained rats were treated with a single intravenous bolus injection of oxaliplatin (2.5 mg/kg) dissolved in normal saline. This approach was sufficient to elicit reproducible allodynic behaviour evident 3 days post injection and during the day thereafter. For convenience all acute experiments were conducted 7 days post injection when compounds were orally administered at 30 μmol/kg.

[4] = read-out: % of reversal of mechanical allodynia
[5] = read-out: Maximal inhibition (%)

T1 sequence (O75762 whole entry): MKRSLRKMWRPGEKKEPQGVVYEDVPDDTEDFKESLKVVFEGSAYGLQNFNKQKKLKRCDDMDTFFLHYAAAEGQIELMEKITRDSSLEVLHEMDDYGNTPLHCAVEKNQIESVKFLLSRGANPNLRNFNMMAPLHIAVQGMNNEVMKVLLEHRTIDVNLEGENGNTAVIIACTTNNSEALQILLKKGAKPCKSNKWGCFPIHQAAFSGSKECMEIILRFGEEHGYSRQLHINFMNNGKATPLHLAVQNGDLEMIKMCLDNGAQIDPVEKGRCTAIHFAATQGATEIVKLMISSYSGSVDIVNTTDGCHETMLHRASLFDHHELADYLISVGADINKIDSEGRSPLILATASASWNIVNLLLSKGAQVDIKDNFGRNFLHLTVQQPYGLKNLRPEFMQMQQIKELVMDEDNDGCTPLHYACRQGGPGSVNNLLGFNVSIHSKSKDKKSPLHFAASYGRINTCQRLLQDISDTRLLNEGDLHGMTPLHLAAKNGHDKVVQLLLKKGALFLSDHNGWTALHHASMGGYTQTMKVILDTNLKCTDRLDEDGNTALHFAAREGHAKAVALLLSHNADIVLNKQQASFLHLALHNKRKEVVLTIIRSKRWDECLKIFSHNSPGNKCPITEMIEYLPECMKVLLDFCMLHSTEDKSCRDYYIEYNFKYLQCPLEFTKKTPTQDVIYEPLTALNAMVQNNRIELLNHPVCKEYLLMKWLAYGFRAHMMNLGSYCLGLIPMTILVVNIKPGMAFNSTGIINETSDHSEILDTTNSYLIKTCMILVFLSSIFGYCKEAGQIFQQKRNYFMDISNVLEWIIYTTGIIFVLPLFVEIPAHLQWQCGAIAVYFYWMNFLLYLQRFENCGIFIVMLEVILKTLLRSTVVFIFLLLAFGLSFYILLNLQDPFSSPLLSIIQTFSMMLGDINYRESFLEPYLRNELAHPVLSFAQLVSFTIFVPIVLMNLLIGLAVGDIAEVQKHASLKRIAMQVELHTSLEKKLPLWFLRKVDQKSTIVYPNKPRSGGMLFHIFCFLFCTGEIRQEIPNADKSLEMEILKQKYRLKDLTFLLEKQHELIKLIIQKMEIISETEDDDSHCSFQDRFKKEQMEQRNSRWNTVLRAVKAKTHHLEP

Row | Structure (SMILES) | inhibition at 10 µM [1] [%] | IC50 ([1]; A549 cells) [nM] | cultured cells with increased [Ca2+] ([1]; PF-4840154 1 μM, A549 cells) [%] | inhibition in vivo at 30 µmol/kg [2, 4] [%] | inhibition in vivo at 30 µmol/kg [2, 5] [%] | inhibition in vivo at 30 µmol/kg [3, 4] [%] | inhibition in vivo at 30 µmol/kg [3, 5] [%]
1 | C=C(C(=O)NCc1ccnc(-c2ccc(OC(F)(F)F)cc2)c1)N(CC)S(=O)(=O)c1ccc(Cl)cc1 [Example 5, 2-[(4-chlorophenyl)sulfonyl-ethyl-amino]-N-[[2-[4-(trifluoromethoxy)phenyl]-4-pyridyl]methyl]prop-2-enamide] | 99 | 100 |  | 76 | 76 |  | 
2 | C=C(C(=O)NCc1ccnc(-c2ccc(OC(F)(F)F)cc2)c1)N(C)S(=O)(=O)c1ccc(Cl)cc1 [Example 4, 2-[(4-chlorophenyl)sulfonyl-methyl-amino]-N-[[2-[4-(trifluoromethoxy)phenyl]-4-pyridyl]methyl]prop-2-enamide] | 98 | 78 |  | 67 | 67 |  | 
3 | CCN(C1(C(=O)NCc2ccnc(-c3ccc(OC(F)(F)F)cc3)c2)CC1)S(=O)(=O)c1ccc(F)cc1 [Example 26, 1-[ethyl-(4-fluorophenyl)sulfonyl-amino]-N-[[2-[4-(trifluoromethoxy)phenyl]-4-pyridyl]methyl]cyclopropanecarboxamide] | 100 | 151 |  | 64 | 64 |  | 
4 | C=C(C(=O)NCc1cc(-c2ccc(OC(F)(F)F)cc2)nc(N2CCCC2)c1)N(CC)S(=O)(=O)c1ccc(F)cc1 [Example 18, 2-[ethyl-(4-fluorophenyl)sulfonyl-amino]-N-[[2-pyrrolidin-1-yl-6-[4-(trifluoromethoxy)phenyl]-4-pyridyl]methyl]prop-2-enamide] | 100 | 93 |  |  |  |  | 
5 | C/C=C(/C(=O)NCc1cccc(-c2ccc(C(F)(F)F)cc2)c1)N(CC)S(=O)(=O)c1ccc(Cl)cc1 [Example 24, (Z)-2-[(4-chlorophenyl)sulfonyl-ethyl-amino]-N-[[3-[4-(trifluoromethyl)phenyl]phenyl]methyl]but-2-enamide] | 97 | 724 |  |  |  |  | 

Further lines, with some results ahead:

Row | inhibition at 10 µM [1] [%] | IC50 ([1]; A549 cells) [nM] | cultured cells with increased [Ca2+] ([1]; PF-4840154 1 μM, A549 cells) [%] | Structure (SMILES) | inhibition in vivo at 30 µmol/kg [2, 4] [%] | inhibition in vivo at 30 µmol/kg [2, 5] [%] | inhibition in vivo at 30 µmol/kg [3, 4] [%] | inhibition in vivo at 30 µmol/kg [3, 5] [%]
6 | 100 | 100 |  | CCN(C1(C(=O)NCc2cccc(-c3ccc(C(F)(F)F)cc3)c2)CC1)S(=O)(=O)c1ccc(Cl)cc1 [Example 30, 1-[(4-chlorophenyl)sulfonyl-ethyl-amino]-N-[[3-[4-(trifluoromethyl)phenyl]phenyl]methyl]cyclopropanecarboxamide] | 82 | 82 |  | 
7 | 100 | 25 |  | CCN(C1(C(=O)NCc2cc(-c3ccc(C(F)(F)F)cc3)nc(N3CCCC3)c2)CC1)S(=O)(=O)c1ccc(Cl)s1 [Example 34, 1-[(5-chloro-2-thienyl)sulfonyl-ethyl-amino]-N-[[2-pyrrolidin-1-yl-6-[4-(trifluoromethyl)phenyl]-4-pyridyl]methyl]cyclopropanecarboxamide] |  |  | 71 | 71
8 | 100 | 16 |  | C=C(C(=O)NCc1cc(OC)nc(-c2ccc(C(F)(F)F)cc2)c1)N(CC)S(=O)(=O)c1ccc(F)cc1 [Example 40, 2-[ethyl-(4-fluorophenyl)sulfonyl-amino]-N-[[2-methoxy-6-[4-(trifluoromethyl)phenyl]-4-pyridyl]methyl]prop-2-enamide] |  |  | 103 | 103
9 | 100 | 58 |  | C=C(C(=O)NCc1ccnc(-c2ccc(C(F)(F)F)cc2)c1)N(CC)S(=O)(=O)c1ccc(F)c(F)c1 [Example 35, 2-[(3,4-difluorophenyl)sulfonyl-ethyl-amino]-N-[[2-[4-(trifluoromethyl)phenyl]-4-pyridyl]methyl]prop-2-enamide] |  |  |  | 
10 |  |  | 95 | CC(C)CNc1nc(N2CCN(CC3CCCOC3)CC2)ncc1C(=O)NCc1ccccc1 (stereo not shown) [PF-4840154, reference compound] |  |  |  | 
